A short description of experiment [1]: Inhibition of Histamine H1 receptor.
For experiment [2], the target named is T1, Adrenergic receptor alpha-2 (Homo sapiens, UniProt P08913+P18825+P18089).
T1 sequence (P08913 whole entry): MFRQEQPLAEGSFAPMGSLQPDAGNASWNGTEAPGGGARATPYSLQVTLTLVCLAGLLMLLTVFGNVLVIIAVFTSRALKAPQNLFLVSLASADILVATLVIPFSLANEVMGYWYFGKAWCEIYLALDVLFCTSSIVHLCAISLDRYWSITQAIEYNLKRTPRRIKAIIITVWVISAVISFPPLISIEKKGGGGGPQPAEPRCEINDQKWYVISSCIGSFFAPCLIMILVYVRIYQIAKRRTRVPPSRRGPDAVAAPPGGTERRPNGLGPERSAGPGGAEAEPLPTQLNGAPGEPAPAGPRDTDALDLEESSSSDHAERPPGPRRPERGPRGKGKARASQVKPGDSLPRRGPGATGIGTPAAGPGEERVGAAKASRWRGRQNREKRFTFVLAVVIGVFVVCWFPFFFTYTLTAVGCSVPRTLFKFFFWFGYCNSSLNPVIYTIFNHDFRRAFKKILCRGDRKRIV
T1 sequence (P18825 whole entry): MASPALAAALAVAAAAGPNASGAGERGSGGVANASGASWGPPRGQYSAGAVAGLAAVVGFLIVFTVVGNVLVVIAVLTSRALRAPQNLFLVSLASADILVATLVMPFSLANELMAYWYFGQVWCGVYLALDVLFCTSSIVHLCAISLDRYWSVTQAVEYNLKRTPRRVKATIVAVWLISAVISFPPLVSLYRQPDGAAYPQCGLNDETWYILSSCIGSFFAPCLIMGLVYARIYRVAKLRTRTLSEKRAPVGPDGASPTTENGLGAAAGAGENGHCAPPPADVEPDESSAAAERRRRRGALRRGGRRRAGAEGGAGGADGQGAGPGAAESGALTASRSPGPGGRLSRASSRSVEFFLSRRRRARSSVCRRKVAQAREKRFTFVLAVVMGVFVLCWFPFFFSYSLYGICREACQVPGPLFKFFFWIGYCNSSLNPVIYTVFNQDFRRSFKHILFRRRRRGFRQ
T1 sequence (P18089 whole entry): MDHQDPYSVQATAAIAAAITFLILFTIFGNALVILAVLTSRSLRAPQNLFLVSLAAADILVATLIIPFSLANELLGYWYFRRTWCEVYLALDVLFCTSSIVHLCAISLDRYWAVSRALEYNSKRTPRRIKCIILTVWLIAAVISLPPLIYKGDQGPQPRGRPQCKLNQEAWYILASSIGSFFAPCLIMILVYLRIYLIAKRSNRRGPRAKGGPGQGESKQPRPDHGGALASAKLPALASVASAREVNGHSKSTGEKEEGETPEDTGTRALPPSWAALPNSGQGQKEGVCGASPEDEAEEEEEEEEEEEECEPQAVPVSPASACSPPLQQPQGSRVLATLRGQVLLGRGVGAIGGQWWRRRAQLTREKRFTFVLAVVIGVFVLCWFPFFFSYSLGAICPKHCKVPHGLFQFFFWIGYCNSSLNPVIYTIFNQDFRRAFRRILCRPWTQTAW
Nature of the experiment: Inhibition of Alpha-2 adrenergic receptor. The class given is protein assay.

The target in another experiment is D(3) dopamine receptor (Homo sapiens, UniProt P35462). In words: Inhibition of dopamine D3 receptor.
Experiment [3] is described as follows: Inhibition of hydroxytryptamine 1D receptor.
In experiment [4] the target is T2, Adrenergic receptor alpha-1 (Homo sapiens, UniProt P35348+P25100+P35368).
T2 sequence (P35348 whole entry): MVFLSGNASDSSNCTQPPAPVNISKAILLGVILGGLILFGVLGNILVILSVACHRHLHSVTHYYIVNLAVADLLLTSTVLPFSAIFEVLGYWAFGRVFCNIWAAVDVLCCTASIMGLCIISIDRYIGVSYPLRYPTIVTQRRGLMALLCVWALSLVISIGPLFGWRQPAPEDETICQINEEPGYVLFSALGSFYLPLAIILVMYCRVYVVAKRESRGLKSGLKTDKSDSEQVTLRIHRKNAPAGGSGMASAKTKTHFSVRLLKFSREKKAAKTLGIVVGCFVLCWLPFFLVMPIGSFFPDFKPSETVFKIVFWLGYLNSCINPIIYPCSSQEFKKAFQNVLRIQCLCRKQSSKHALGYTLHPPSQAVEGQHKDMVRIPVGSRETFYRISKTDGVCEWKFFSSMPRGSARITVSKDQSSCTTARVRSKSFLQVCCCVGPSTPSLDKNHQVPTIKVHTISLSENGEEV
T2 sequence (P25100 whole entry): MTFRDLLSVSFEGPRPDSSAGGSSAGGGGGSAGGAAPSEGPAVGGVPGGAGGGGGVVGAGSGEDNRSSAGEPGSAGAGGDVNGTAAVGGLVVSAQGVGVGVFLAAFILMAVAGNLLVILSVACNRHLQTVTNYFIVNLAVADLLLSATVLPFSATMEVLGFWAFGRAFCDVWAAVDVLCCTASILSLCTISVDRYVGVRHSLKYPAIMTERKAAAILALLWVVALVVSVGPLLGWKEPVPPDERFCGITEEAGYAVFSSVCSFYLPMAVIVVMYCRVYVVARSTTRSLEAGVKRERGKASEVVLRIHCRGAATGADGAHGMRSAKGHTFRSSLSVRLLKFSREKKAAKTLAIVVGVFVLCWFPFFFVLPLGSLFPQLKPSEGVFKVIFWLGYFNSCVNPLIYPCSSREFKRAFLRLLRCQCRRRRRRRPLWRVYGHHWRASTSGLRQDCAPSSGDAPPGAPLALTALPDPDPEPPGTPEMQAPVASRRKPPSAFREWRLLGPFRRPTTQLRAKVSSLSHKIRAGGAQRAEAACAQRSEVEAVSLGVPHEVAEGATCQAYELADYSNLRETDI
T2 sequence (P35368 whole entry): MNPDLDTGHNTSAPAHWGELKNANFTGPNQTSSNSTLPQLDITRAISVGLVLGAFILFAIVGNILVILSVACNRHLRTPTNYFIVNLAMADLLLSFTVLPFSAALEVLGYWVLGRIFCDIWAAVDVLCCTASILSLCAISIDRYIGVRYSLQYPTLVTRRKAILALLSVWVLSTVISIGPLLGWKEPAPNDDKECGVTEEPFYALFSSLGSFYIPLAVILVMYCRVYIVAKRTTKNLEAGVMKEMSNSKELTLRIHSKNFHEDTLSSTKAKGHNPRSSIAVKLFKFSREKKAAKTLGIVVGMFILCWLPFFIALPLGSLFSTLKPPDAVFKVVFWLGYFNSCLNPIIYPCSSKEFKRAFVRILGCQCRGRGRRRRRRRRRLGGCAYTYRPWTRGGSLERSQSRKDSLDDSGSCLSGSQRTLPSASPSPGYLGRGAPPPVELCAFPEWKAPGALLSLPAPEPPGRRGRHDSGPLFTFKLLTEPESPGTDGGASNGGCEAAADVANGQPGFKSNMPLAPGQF
In words: Inhibition of Alpha-1 adrenergic receptor. The class given is protein assay.

Sequence of D(3) dopamine receptor (P35462 whole entry): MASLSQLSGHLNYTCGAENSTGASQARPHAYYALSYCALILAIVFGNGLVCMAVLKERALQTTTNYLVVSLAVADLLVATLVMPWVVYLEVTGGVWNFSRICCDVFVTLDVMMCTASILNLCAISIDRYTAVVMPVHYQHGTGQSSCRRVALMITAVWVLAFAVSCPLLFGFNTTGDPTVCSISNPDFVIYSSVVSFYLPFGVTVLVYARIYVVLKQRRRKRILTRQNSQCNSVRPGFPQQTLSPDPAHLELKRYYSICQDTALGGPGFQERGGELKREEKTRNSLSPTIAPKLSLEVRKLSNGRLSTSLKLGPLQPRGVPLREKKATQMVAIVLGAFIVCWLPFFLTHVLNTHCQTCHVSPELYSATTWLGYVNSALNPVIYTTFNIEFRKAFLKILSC

`O=C1c2ccccc2S(=O)(=O)N1CCCCN1CCN(c2ncccn2)CC1` [IPSAPIRONE]: the IC50 (usually the point on the concentration scale where inhibition reaches its midpoint) in experiment [1] is 0.024 µM; in experiment [2] it was 1 µM; against D(3) dopamine receptor, 1.2 µM; in experiment [3], 3 µM; in experiment [4], 0.5 µM.

The values are drawn from ChEMBL document CHEMBL1138746, “Indolebutylamines as selective 5-HT(1A) agonists” (J Med Chem, 2004).
